Tests used:
[1] = biological target: human GLP-1R (Homo sapiens, UniProt P43220, G168S); test: CHO GLP-1R Clone H6 cAMP HTRF agonist assay (Assay 1, high receptor density); assay type: cell-based; details: for EC50: geometric mean; for Emax: CHO GLP-1R clone H6, arithmetic mean, relative to saturating GLP-1 (1 μM), read-out: Assay 1 Emax (%)
Procedure, shortened: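 From replicate determinations, mean EC50 (geometric) and mean Emax (arithmetic) were derived and expressed to two significant figures.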

[2] = biological target: human GLP-1R (Homo sapiens, UniProt P43220, L260F); test: CHO GLP-1R Clone C6 cAMP HTRF agonist assay (Assay 2, low receptor density); assay type: cell-based; details: for EC50: geometric mean; for Emax: CHO GLP-1R clone C6, relative to saturating GLP-1 (1 μM)
Source text: In Table 5 and Table 6, assay data are presented to two (2) significant figures as the geometric mean (EC50s) and arithmetic mean (Emax) based on the number of replicates listed (Number). A blank cell means there was no data for that Example or the Emax was not calculated.

[3] = CHO GLP-1R clone, low receptor density, cAMP HTRF

human GLP-1R (Homo sapiens, UniProt P43220, L260F), sequence (P43220 24-463 L260F): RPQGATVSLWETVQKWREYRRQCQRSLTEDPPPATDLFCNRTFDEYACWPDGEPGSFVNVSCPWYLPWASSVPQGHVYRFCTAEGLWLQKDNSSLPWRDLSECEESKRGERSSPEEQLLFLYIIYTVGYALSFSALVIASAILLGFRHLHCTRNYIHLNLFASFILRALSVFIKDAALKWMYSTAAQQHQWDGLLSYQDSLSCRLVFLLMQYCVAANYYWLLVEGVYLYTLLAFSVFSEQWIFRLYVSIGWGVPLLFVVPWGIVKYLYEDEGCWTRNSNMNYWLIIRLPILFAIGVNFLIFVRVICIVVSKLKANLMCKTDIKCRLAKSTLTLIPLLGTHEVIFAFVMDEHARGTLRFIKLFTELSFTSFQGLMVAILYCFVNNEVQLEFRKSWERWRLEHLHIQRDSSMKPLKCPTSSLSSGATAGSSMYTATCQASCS
human GLP-1R (Homo sapiens, UniProt P43220, G168S), sequence (P43220 24-463 G168S): as the sequence (P43220 24-463 L260F) above, with G145S, F237L counted along it

SMILES	EC50 ([1]; CHO GLP-1R clone H6, cAMP HTRF) [µM]	Emax [1] [%]	EC50 ([2]; CHO GLP-1R clone C6, cAMP HTRF) [µM]	Emax ([2]; arithmetic mean) [%]	further results
CCn1cncc1Cn1c(CN2CCC(c3cccc4c3OC(C)(c3ccc(Cl)cc3F)O4)CC2)nc2ccc(C(=O)O)cc21.N (single isomer, unassigned; ent-2) [Compound 22B, Ammonium 2-({4-[2-(4-chloro-2-fluorophenyl)-2-methyl-1,3-benzodioxol-4-yl]piperidin-1-yl}methyl)-1-[(1-ethyl-1H-imidazol-5-yl)methyl]-1H-benzimidazole-6-carboxylate, ENT-2]	–	–	–	–	EC50 ([1]; CHO GLP-1R clone, cAMP HTRF): 0.21 µM; EC50 [2, 3]: 1 µM; Assay 2 Emax ([2]; relative to saturating full agonist GLP-1 (1 μM), arithmetic mean): 87%
N#Cc1ccc(COc2cccc(C3CCN(Cc4nc5ccc(C(=O)O)cc5n4C[C@@H]4CCO4)CC3)n2)c(F)c1 [Compound 110B, 2-[(4-{6-[(4-cyano-2-fluorobenzyl)oxy]pyridin-2-yl}piperidin-1-yl)methyl]-1-[(2S)-oxetan-2-ylmethyl]-1H-benzimidazole-6-carboxylic acid]	–	–	–	82	–
N#Cc1ccc(COc2nc(C3CCN(Cc4nc5ccc(C(=O)O)cc5n4C[C@@H]4CCCO4)CC3)ccc2F)cc1 [Compound 128B, 2-[(4-{6-[(4-cyanobenzyl)oxy]-5-fluoropyridin-2-yl}piperidin-1-yl)methyl]-1-[(2S)-tetrahydrofuran-2-ylmethyl]-1H-benzimidazole-6-carboxylic acid]	–	–	–	86	–
O=C(O)c1ccc2nc(CN3CCC(c4cccc5c4O[C@H](c4ccc(Cl)cc4F)O5)CC3)n(C[C@@H]3CCO3)c2c1 [Compound 4B, Ammonium 2-({4-[(2R)-2-(4-chloro-2-fluorophenyl)-1,3-benzodioxol-4-yl]piperidin-1-yl}methyl)-1-[(2S)-oxetan-2-ylmethyl]-1H-benzimidazole-6-carboxylate]	–	–	–	–	EC50 [2, 3]: > 20 µM
N#Cc1ccc(COc2cccc(C3CCN(Cc4nc5ccc(C(=O)O)cc5n4C[C@@H]4CCOC4)CC3)n2)c(F)c1 [Compound 126B, 2-[(4-{6-[(4-cyano-2-fluorobenzyl)oxy]pyridin-2-yl}piperidin-1-yl)methyl]-1-[(3S)-tetrahydrofuran-3-ylmethyl]-1H-benzimidazole-6-carboxylic acid]	–	–	–	90	–
N#Cc1ccc(COc2nc(C3CCN(Cc4nc5ccc(C(=O)O)cc5n4C[C@H]4CCCO4)CC3)ccc2F)cc1 [Compound 129B, 2-[(4-{6-[(4-cyanobenzyl)oxy]-5-fluoropyridin-2-yl}piperidin-1-yl)methyl]-1-[(2R)-tetrahydrofuran-2-ylmethyl]-1H-benzimidazole-6-carboxylic acid]	–	–	–	98	–

More lines, main results first:

EC50 ([1]; CHO GLP-1R clone H6, cAMP HTRF) [µM]	Emax [1] [%]	EC50 ([2]; CHO GLP-1R clone C6, cAMP HTRF) [µM]	Emax ([2]; arithmetic mean) [%]	SMILES	further results
0.0086	78	0.088	82	CCn1c(CN2CCC(c3cccc(OCc4ccc(Cl)cc4F)n3)CC2)nc2ccc(C(=O)O)cc21 [Compound 257B, 2-[(4-{6-[(4-chloro-2-fluorobenzyl)oxy]pyridin-2-yl}piperidin-1-yl)methyl]-1-ethyl-1H-benzimidazole-6-carboxylic acid]	–
0.036	73	1.1	79	CC1(Cn2c(CN3CCC(c4cccc(OCc5ccc(Cl)cc5F)n4)CC3)nc3ccc(C(=O)O)cc32)CCOC1 (stereo not drawn) [Compound 289B, 2-[(4-{6-[(4-chloro-2-fluorobenzyl)oxy]pyridin-2-yl}piperidin-1-yl)methyl]-1-[(3-methyltetrahydrofuran-3-yl)methyl]-1H-benzimidazole-6-carboxylic acid]	–
0.00095	95	0.013	91	CC(C)(C)n1cnnc1Cn1c(CN2CCC(c3cccc(OCc4ccc(Cl)cc4F)n3)CC2)nc2ccc(C(=O)O)cc21 [Compound 259B, 1-[(4-tert-butyl-4H-1,2,4-triazol-3-yl)methyl]-2-[(4-{6-[(4-chloro-2-fluorobenzyl)oxy]pyridin-2-yl}piperidin-1-yl)methyl]-1H-benzimidazole-6-carboxylic acid]	–
> 20	–	–	–	CN1CCOC(Cn2c(CN3CCC(c4cccc(OCc5ccc(Cl)cc5F)n4)CC3)nc3ccc(C(=O)O)cc32)C1 (stereo not drawn) [Compound 338B, 2-[(4-{6-[(4-chloro-2-fluorobenzyl)oxy]pyridin-2-yl}piperidin-1-yl)methyl]-1-[(4-methylmorpholin-2-yl)methyl]-1H-benzimidazole-6-carboxylic acid]	–
